For one test, the system named is HL60 cells. The experiment in a line: Intracellular ROS accumulation, DCFH-DA staining, HL60 cells. Type of test: cell-based. The settings on record: 3 h; for increase of ROS level: proliferating HL60 cells; for fold change of ROS: quiescent HL60 cells. The procedure: HL60 cells were cultured in RPMI 1640 supplemented (i) with or (ii) without 10% fetal bovine serum to obtain proliferating and quiescent leukemia cells respectively. Serum-deprived quiescent leukemic cells and proliferating leukemic cells were then cultured in media containing 0.5% FBS, and treated with 1 μM and 2.5 μM fenretinide, and also with chemotherapeutics as controls, 20 μM idarubicin (IDA) and 5 μM cytarabine (Ara-C).
The intracellular generation of reactive oxygen species (ROS) was measured using of the oxidation-sensitive fluorescent dye 2,7-dichlorofluorescin diacetate (DCFH-DA) (Molecular Probes). After 3 h exposure of fenretinide, 2×10^5 cells were harvested and washed once with PBS, then loaded with 1 ml PBS containing 10 μM of DCFH-DA. The cells were then incubated at 37° C. for 30 min and the fluorescence intensity was measured at 530 nm.
To examine the effects of fenretinide on proliferating and quiescent leukemia cells, HL60 cells were chosen as serum deprived quiescent leukemic cell model obtained when incubated in RPMI 1640 without serum for 48 h, with G0/G1 phase cells (being in quiescent state) accounting up to 59.9%. Serum-deprived quiescent leukemic cells and proliferating leukemic cells were then cultured in media containing 0.5% FBS, and treated with 1 μM and 2.5 μM fenretinide, and also with chemotherapeutics as controls, 20 μM idarubicin (IDA) and 5 μM cytarabine (Ara-C). […] Fenretinide induces intracellular production of ROS, lowers mitochondrial transmembrane potential (MTP), and eventually leads to apoptosis in a variety of malignancies. We measured MTP induced by fenretinide in proliferating and quiescent HL60 cells, as examined through rhodamine 123 and propidium iodide staining and followed by flow cytometry analysis. […] We further measured intracellular ROS abundance induced by fenretinide. […] After incubation with 1 μM and 2.5 μM fenretinide for 3 h, the ROS level of proliferating cells increased by 1.77 and 2.6 fold, respectively.

The test system of the next test is NRF2 and HSF1. Nature of the test: Western blot of NRF2 and HSF1 in nuclear extracts of NB4 cells. Type of test: cell-based. The settings on record: 1 μM fenretinide, within 6 hours. The text has this:
Transcriptome analysis of fenretinide-induced apoptosis in leukemia cell lines facilitated in-depth mining of biological information relevant to oxidative stress-mediated apoptosis, including the prediction of upstream transcription factors potentially involved in gene regulation. Of several dozens of transcriptional regulators predicted, stress-responsive transcription factors NRF2 and HSF1 are of particular interest for understanding how oxidative signaling is translated into downstream effects. NRF2 is known as a key regulator of intracellular redox balance, activating genes encoding antioxidative proteins under oxidative stress (Jaiswal, 2004; D'Autreaux and Toledano, 2007). Although HSF1 is commonly recognized as a heat-shock motivated transcription factor (Hayashida et al., 2006), it can also be activated by oxidative stress under certain circumstances (Ahn and Thiele, 2003). We therefore further investigated the temporal abundance and spatial localization of there two stress-responsive transcription factors during fenretinide-induced apoptosis in NB4 cells. […] The induction of NRF2 was extended beyond the 24 hour whereas HSF1 induction was terminated at this time point. […] Also, nuclear gathering of NRF2 was sustained beyond the 24 hour treatment whereas that of HSF1 was terminated. […]

The subject of test [1] is CD34+CD38+ CML progenitor cells. Nature of the test: Apoptosis (Annexin V/7AAD, FACS) of CML progenitor cells. It is filed as cell-based, human. The text has this:
Fresh bone marrow (BM) cells were obtained from 38 patients with CML and 5 non-leukemic donors, 25 AML, 17 ALL, and 8 normal specimens with informed consent according to the Declaration of Helsinki. Approval was obtained from Institutional Review Board at the School of Medicine in Shanghai Jiao Tong University. BM mononuclear cells were isolated by Ficoll density gradient centrifugation (Shanghai Second Reagent Factory, Shanghai, China). CD34^+ Cell were selected using EasySep® Human CD34 Positive Selection kit (Stem Cell Technologies, Vancouver, BC, Canada) according to the manufacturer's instructions. The purity of CD34 cells ranged between 92 and 98% in all samples detennined by flow cytometry. The CD34^+ cells were cultured in a serum-free medium (StemPro 34; Gibco BRL, Gaithersburg, Md.) supplemented with growth factors (PeproTech, London, United Kingdom) (20). The growth factors consisted of GM-CSF (200 pg/mL), G-CSF (1 ng/mL); SCF (200 pg/mL); LIF (50 pg/mL), MIP-1α (200 pg/mL) and IL-6 (1 ng/mL).
Primitive AML and CML subpopulations (CD34^+ cells) were identified using CD34-PE in combination with CD38-APC, and followed by double-labeling with 7AAD and Annexin V antibodies for apoptosis assessment. The CD34^+ cells were first stained with antibodies against the surface markers CD34-PE and CD38-APC (Beckman Coulter, Fullerton, Calif.) and incubated at room temperature for 15 minutes. Cells were then washed with cold PBS and resuspended in 200 μL annexin V 1×binding buffer (10 mM HEPES/NaOH, pH 7.4, 140 mM NaCl, 2.5 mM CaCl2), 5 μL AnnexinV-FITC (BD Phanningen, San Diego, Calif.) and 7-aminoactinomycin (7-AAD, 0.25 mg/mL) (Molecular Probes, Eugene, Oreg.). Subsequently, the samples were incubated at room temperature for 15 minutes and analyzed by flow cytometry.
It would be of significance to find out the subpopulations specifically targeted by fenretinide. We divided the CML patient specimens into mononuclear cells and CD34^+ cells. The CD34^+ CML cells are primitive cells including CML stem and progenitor cells. […]

Consider `CC1=C(/C=C/C(C)=C/C=C/C(C)=C/C(=O)Nc2ccc(O)cc2)C(C)(C)CCC1` [fenretinide, N-(4-hydroxyphenyl)retinamide], for which the “increase of ROS level” value in the test with HL60 cells (1 μM fenretinide) was found to be 1.77 fold; in the test with HL60 cells (2.5 μM fenretinide), 2.6 fold. For the same compound, the “fold change of ROS” value with HL60 cells (1 μM fenretinide) was found to be 3.83 fold; with HL60 cells (2.5 μM fenretinide) it was 4.3 fold. The “protein levels of NRF2 and HSF1 in nuclear extracts” value with NRF2 and HSF1 is reported as “markedly elevated”. Further, the results for the “apoptosis of CD34+CD38+ cells” value in test [1] (2 μM fenretinide), in test [1] (4 μM fenretinide) and in test [1] (6 μM fenretinide) were 17.83%±6.01%, 30.60%±4.93% and 33.08%±19.43%, respectively.

(Values after patent publication US8088822B2, “Use of fenretinide or bioactive derivatives thereof and pharmaceutical compositions comprising the same” (priority 2008, dated 2012).)
